# Columns and labels:
# [1] = system: C. albicans strain SC5314; assay: Halo assay (zones of inhibition on confluent plates); type: cell-based, Candida albicans
# Method: (§1) Confluent plates of either S. cerevisiae diploid strain SEY6210 (left panel) or C. albicans strain SC5314 (right panel) were spotted with 5 μl of destomycin (DSM), blasticidin (BSN), nourseothricin (NST), geneticin (G418), zeocin (ZEO), and puromycin (PUR) using concentrations of 10 mg/ml, 1 mg/ml, 0.5 mg/ml, 0.25 mg/ml, 0.125 mg/ml, and 0.06 mg/ml (top to bottom). Zones of inhibition were examined after overnight growth; clear halos indicate antifungal activity;
# (§2) To explore the possibility of developing a dominant selectable marker for C. albicans, geneticin, the aminoglycoside used in dominant selection studies in S. cerevisiae was initially examined for antifungal activity in C. albicans (FIG. 1). […] When a number of alternative commercially available antibiotics including zeocin, destomycin, nourseothricin, blasticidin, and puromycin were tested for antifungal activity, the present inventors discovered that C. albicans was sensitive to nourseothricin at a concentration of about 200 μg/ml. […] C. albicans was also found to be sensitive to blasticidin. […] (Webster et al., 1983, Gene 26:243-252).
# [2] = system: S. cerevisiae diploid strain SEY6210; assay: as above; type: cell-based, Saccharomyces cerevisiae; conditions: at concentration dramatically below that at which geneticin acts
# Method: as §1, §2
# [3] = system: C. albicans CAI4 maintaining pRC18 vector and parent strain SC5314; assay: Growth on nourseothricin-supplemented plates; type: cell-based, Candida albicans; conditions: 400 μg/ml; irrespective of carbon source (1% Casamino acid or YEP 2% glucose)
# Method: ASTHMA, PSMP, and vector alone (lacking either SAT expression module) plasmids were transformed into CAI4 and directly selected on YPD-drug supplemented plates (400 μg/ml) prior to being restreaked onto a YPD plate containing 400 μg/ml nourseothricin. A) Six independent ASTHMA transformants, as well as the negative controls CAI4, containing pRC18, and the parent strain, SC5314 are shown after two days growth at 30° C. on YPD plates containing 400 μg/ml NST. B) Four independent PSMP transformants, as well as the negative controls, CAI4 maintaining pRC18, and SC5314, grown on YPD (left plate), and either derepressing conditions (1% Casamino acid+300 μg/ml NST, center plate), or repressing conditions (YPD+300 μg/ml NST, right plate) for PCK1 promoter-dependent expression of SAT. Plates were incubated two days at 30° C.; and
# The composition of a YPD medium for culturing yeast contains 1% yeast extract, 2% bactopeptone and 2% glucose. Agar was added in an amount of 2% to the medium in the case of a plate form. Transformant were selected on Ura+ protophy and subsequently streaked onto nourseothricin-supplemented plates containing either 1% Casamino acid (derepressing conditions) or YEP containing 2% glucose (repressing conditions) as alternative carbon sources. […]
# [4] = system: S. cerevisiae strain maintaining the geneticin resistance gene KanR; assay: Nourseothricin sensitivity of geneticin-resistant (KanR) strain; type: cell-based, Saccharomyces cerevisiae; conditions: S. cerevisiae strain with KanR
# Source text: The present inventors also compared the sensitivity of NST to geneticin in S. cerevisiae.
Molecule,"antifungal (fungicidal) activity by halo assay ([1]; C. albicans SC5314, 5 μl spots, 10 to 0.06 mg/ml, overnight growth)",concentration at which C. albicans is sensitive ([1]; C. albicans),"effect of medium on antifungal effectiveness ([1]; rich, high-salt YPD plates versus minimal YNB plates)",antifungal activity by halo assay [2],growth of strains lacking SAT in the presence of the drug [3],cross-resistance conferred by KanR [4]
CN(CC[C@H](N)CC(=O)N[C@H]1C=C[C@H](n2ccc(N)nc2=O)O[C@@H]1C(=O)O)C(=N)N [blasticidin],sensitive,,,,,
nourseothricin,,about 200 μg/ml,dramatically more effective on rich media,potent antifungal activity,failed to grow,failed to confer resistance
